The source made the active and inactive calls. The rule behind the calls is not given here.
Experiments:
[1] = Chemical chaperone activity assessed as suppression of alpha-lactalbumin-bovine serum albumin aggregation at 3 mM by turbidity assay; format: functional
[2] = biological target: Histone deacetylase (Homo sapiens) (UniProt Q13547+O15379+Q9UBN7+Q92769+Q9UQL6+Q8WUI4+Q9BY41+Q96DB2+P56524+Q9UKV0+Q969S8); details: SH-SY5Y, at 3 mM
Description: Inhibition of HDAC in human SH-SY5Y cells under ER stress assessed as acetylated H3 levels at 3 mM after 48 hrs by Western blot analysis in presence of tunicamycin

Row | inhibition [2] | Compound | Activity [1]
1 | Active | O=C(O)CCCc1ccccc1 | Active
2 | Active | COc1ccc(CCCC(=O)O)cc1 | –
3 | Active | O=C(O)CCCc1ccc([N+](=O)[O-])cc1 | –

Reference: ChEMBL document CHEMBL2434862, “4-Phenylbutyric acid protects against neuronal cell death by primarily acting as a chemical chaperone rather than histone deacetylase inhibitor” (Bioorg Med Chem Lett, 2013)
